Assay [1] has as its system Pseudomonas aeruginosa PAO1 strain H103. The assay is classed as cell-based. The following applies: laboratory strain P. aeruginosa PAO1. In short, it runs like this: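 Modified broth microdilution MIC in Mueller Hinton medium, peptides diluted in 0.01% acetic acid/0.2% BSA, polypropylene plates. Inoculum 2-7×10^5 CFU/ml, overnight at 37 °C; MIC is the lowest concentration with no visible growth.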

Assay [2] has as its system Liverpool Epidemic Strains. The assay is classed as cell-based, Pseudomonas aeruginosa. In short, it runs like this: (§1)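 Modified broth microdilution in Mueller Hinton medium, peptides serially diluted in 0.01% acetic acid with 0.2% BSA in polypropylene plates. Inoculum 2-7×10^5 CFU/ml, overnight incubation at 37° C; MIC taken as lowest concentration with no visible growth.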

The subject of assay [3] is multidrug resistant Brazilian clinical isolates of P. aeruginosa. It is filed as cell-based, Pseudomonas aeruginosa. In short, it runs like this: as §1
The next assay has as its system ESBL E. cloacae. It is filed as cell-based, Enterobacter cloacae. The gist of the method:
as §1

The test system of assay [4] is Staphylococcus aureus ATCC25923. The assay is classed as cell-based. Conditions: ATCC25923. In short, it runs like this:
(§2)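 First, peptides were serially diluted at ten times final strength in 0.01% acetic acid with 0.2% BSA. These were then added to Mueller Hinton medium and inoculated with overnight-grown organisms at 2-7×10^5 CFU/ml. After overnight incubation at 37° C, the MIC was scored as the concentration without growth.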

Assay [5] concerns Enterococcus faecalis ATCC29212. The assay is classed as cell-based. The following applies: ATCC29212. The gist of the method:
as §2

Assay [6] deals with CXCL1 (Gro-α) release by human PBMC. Put plainly: Chemokine induction in PBMC (capture ELISA). The assay is classed as cell-based. Conditions: background (196) subtracted. The gist of the method: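 Human PBMC from healthy donors' heparinised blood (Ficoll), 7.5×10^5 cells treated with 20 or 100 μg/ml peptide for 24 h at 37° C, 5% CO2. Cell-free supernatants assayed for CXCL1 by capture ELISA.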
For orientation: ELISA stands for enzyme-linked immunosorbent assay.

Assay [7] concerns VRE Vancomycin resistant Enterococcus faecium clinical isolates. It is filed as cell-based. In short, it runs like this: (§3)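 Broth microdilution in Mueller Hinton medium, peptides serially diluted in 0.01% acetic acid with 0.2% BSA in polypropylene plates. Inoculum 2-7×10^5 CFU/ml, incubated overnight at 37° C. MIC is the lowest concentration with no visible growth.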
In assay [8] the test system is ESBL E. coli clinical strain 64771. It is filed as cell-based. Conditions: ESBL clinical strain 64771. The gist of the method:
as §3

The test system of assay [9] is multidrug resistant Pseudomonas maltophilia ATCC13637. It is filed as cell-based. The gist of the method: as §3
Assay [10] relates to VRE Vancomycin resistant Enterococcus faecalis clinical isolates. It is filed as cell-based. The gist of the method: as §3
Assay [11] relates to ESBL Klebsiella pneumonia clinical strain 63575. The assay is classed as cell-based. The gist of the method:
as §3

In assay [12] the test system is MCP-3 release by human PBMC. Put plainly: Chemokine induction in PBMC (capture ELISA). It is filed as cell-based. The following applies: background (6) subtracted. The gist of the method:
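Human PBMC from healthy donors (Ficoll-isolated), 7.5×10^5 cells at 0.75–1×10^6 cells/ml, treated with peptides at 20 or 100 μg/ml for 24 h at 37° C, 5% CO2. MCP-3 in cell-free supernatants measured by capture ELISA.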

Assay [13] deals with MCP-1 release by human PBMC. Put plainly: Chemokine induction in PBMC (capture ELISA). The assay is classed as cell-based. Conditions: background (204) subtracted. The gist of the method: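 Heparinized blood from healthy volunteers; Ficoll-isolated human PBMC (7.5×10^5) treated with peptides at 20 or 100 μg/ml for 24 hours at 37° C, 5% CO2. Cell-free supernatants assayed for MCP-1 by capture ELISA.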

Assay [14] has as its system clinical isolates of MRSA. The assay is classed as cell-based, Staphylococcus aureus. In short, it runs like this: as §1

Molecules are shown by their SMILES. Residues, ends and D or L forms follow the SMILES beside them. Some results are limits rather than exact numbers.

As to `CC[C@H](C)[C@H](NC(=O)[C@H](CCCNC(=N)N)NC(=O)[C@@H](N)CCCCN)C(=O)N[C@@H](CCSC)C(=O)N[C@@H](CCCCN)C(=O)N[C@@H](CC(C)C)C(=O)N[C@@H](CCCCN)C(=O)N[C@@H](CCSC)C(=O)N[C@@H](CCCNC(=N)N)C(N)=O` [HHC133, KRIMKLKMR] (H-KRIMKLKMR-NH2; N-terminus assumed), the “antimicrobial activity against P. aeruginosa PAO1 (in words)” value in assay [1] was “did not return any generally active substances”. The minimum inhibitory concentration (MIC) (in assay [2]; in [3]; in the assay on ESBL E. cloacae; in assay [4]; in [5]; in assay [7]) was above 226 µM throughout. For the same compound, the minimum inhibitory concentration (MIC) in [8], in assay [9], in assay [10], in assay [11] and in [14] was above 226 µM each time. Moreover, the “Chemokine induction Gro-α” value in [6] (20 μg/ml peptide) stood at 15 pg/mL; in assay [6] (100 μg/ml peptide), 81 pg/mL. Also, the results for the “Chemokine induction MCP-3” value in assay [12] (20 μg/ml peptide) and in [12] (100 μg/ml peptide) were 0 pg/mL and 2 pg/mL, respectively. Also, the “Chemokine induction MCP-1” value in assay [13] (20 μg/ml peptide) came to 195 pg/mL; in assay [13] (100 μg/ml peptide), 444 pg/mL.

For the origin of these results see patent US8343475B2, “Small cationic antimicrobial peptides” (priority 2006, dated 2013).
